{
  "source": "paper PMC10870435",
  "about": "“A novel complement C3 inhibitor CP40-KK protects against experimental pulmonary arterial hypertension via an inflammasome NLRP3 associated pathway” (Journal of Translational Medicine, 2024)",
  "key": {"C3": {"system": "C3", "details": "cited from earlier work", "excerpt": "The selective C3 inhibitor CP40 has been found therapeutically effective in various diseases, but has yet not been tested in the PAH model. In the current study, we applied the newly identified CP40 analog, CP40-KK, with two more lysine attached to the C terminus, in the MCT-induced PAH rat model."}, "RAW264.7 cells": {"system": "RAW264.7 cells", "assay": "RAW264.7 macrophages, western blot of NLRP3 pathway after C3a", "assay_type": "cell-based", "details": "n = 3 per group", "procedure": "(§1) RAW264.7 cells were provided by the Hubei Key Laboratory of Genetics and Molecular Mechanism of Cardiologic Disorders, Huazhong University of Science and Technology (China), and cultured in DMEM containing 10% fetal bovine serum at 37 ℃ and 5% CO2. RAW264.7 cells were incubated with 50 nM C3a for 12 h and then were washed twice with PBS. The cells were incubated with serum-free DMEM for 12 h and the supernatants were collected. After pretreatment with 100 ng/ml of IL-1RA for 1 h, we added the supernatants from the control or C3a group to PASMCs respectively for 24 h.\nProteins were collected from the fresh frozen-rat lung tissues using RIPA lysis buffer. Protein concentration was quantified using a BCA reagent. Equal amounts of protein were electrophoretically separated on 10% SDS polyacrylamide gel, transferred to PVDF membranes, and probed with desired primary antibodies overnight at 4 °C. Membranes were then washed with TBST and incubated with anti-mouse IgG (1:5000) or anti-rabbit IgG (1:5000) horseradish peroxidase conjugated antibodies as indicated. Blots were developed with the enhanced chemiluminescence system. To compare and quantify levels of proteins, the density of each band was measured using Image J software. Equal loading for total cell or tissue lysates was determined by β-Actin western blot."}, "[1]": {"system": "MCT-induced rat PAH model", "assay": "MCT-induced rat PAH model: hemodynamics, RV hypertrophy, vessel morphology", "assay_type": "in vivo", "details": "single i.p. injection 40 mg/kg; control group 28.00 ± 3.55 mmHg; mean ± SEM; n = 6 per group; SEM", "procedure": "In the current study, two animal experiments were conducted successively. 30 rats were randomly divided into two groups (control group and MCT group, n = 15 per group) in the first experiment. MCT group rats received a single intraperitoneally injection of MCT (40 mg/kg) on day 1 to induce PAH while control group rats received an equivoluminal saline injection intraperitoneally. For the second animal experiment, the rats were assigned into four groups (control group, MCT group, CP40-KK group, and MCT + CP40-KK group, n = 15 per group). The control group was given the same volume of saline subcutaneously while the CP40-KK group rats only received CP40-KK (2 mg/kg) by subcutaneous injection from day 15 to day 28 continuously. The rats in the MCT group and MCT + CP40-KK group were received a single intraperitoneally injection of MCT (40 mg/kg) on day 1 and subcutaneously injected with either an equal volume of saline or CP40-KK (2 mg/kg) at day 15 to day 28 continuously. The dose selection of MCT and CP40-KK in our study was established based on previous studies.\nFour weeks after the MCT injection, the experimental rats were weighed and anesthetized by intraperitoneal injecting pentobarbital sodium (40 mg/kg). After being anesthetized, rats were fixed in the supine position. A 3F polyethylene catheter filling with heparin was introduced into the right ventricle (RV) through the right jugular vein and the right atrium. Right ventricle systolic pressure (RVSP) was assessed by a pressure transducer and PowerLab system (AD Instruments, Australia). Pressure recordings were measured over a 2 min period and analyzed with Powerlab Pro Software (AD Instruments, Australia). After the hemodynamic study, the rats were euthanized by an overdose of anesthesia, and their lungs and hearts were dissected for further evaluation. The dry weights of the RV and left ventricle (LV) + septum were measured to calculate the RV/(LV + S) ratio and the RV / body weight (RV/BW). The left lung was fixed in 4% paraformaldehyde, and the right lung was snap-frozen in liquid nitrogen and stored at − 80 °C for further analysis.\nFixed lung samples were further fixed in 4% buffered paraformaldehyde for 24 h, embedded in paraffin, and processed for sectioning at 5 μm thick. Hematoxylin and eosin (H&E) staining were performed on paraffin-fixed lung tissue slides. The percent medial wall thickness (WT%) and percent medial wall area (WA%) were used to assess the extent of pulmonary vascular remodeling. WT% = (external diameter − internal diameter)/(external diameter) × 100%; WA% = (external area − internal area)/external area × 100%. All data were obtained and analyzed in a blinded manner."}, "[2]": {"system": "primary rat pulmonary arterial smooth muscle cells (PASMCs)", "assay": "PASMC proliferation with macrophage supernatant (EdU assay, western blot)", "assay_type": "cell-based", "details": "24 h, n = 3 per group", "procedure": "PASMCs were isolated from rat distal pulmonary arteries and then cultured in Dulbecco’s modified Eagle’s medium (DMEM) containing 20% fetal bovine serum as previously described.\nCells seeded in the 24-well plate were labeled with 10 μmol/L of EdU (Meilun, Dalian, China) for 2 h at 37 ℃. Subsequently, cells were fixed in 4% of paraformaldehyde for 20 min and incubated in phosphate-buffered saline (PBS) containing 0.5% of Triton- X100 for 15 min. After being washed three times with PBS, 150 μL of dying solution was applied per well for 30 min and nuclei staining with Hoechst 33,342 for 10 min away from light. The proliferating cells were labeled with green fluorescence, with a maximum excitation wavelength of 491 nm and a maximum emission wavelength of 518 nm for 488-Azide. The proliferative rate = EdU-positive cells/Hoechst-positive cells.\nas §1, with “After pretreatment with 100 ng/ml of IL-1RA for 1 h, we added the supernatants from the control or C3a group to PASMCs respectively for 24 h.” left out"}},
  "data": [
    {"compound": "CC[C@H](C)[C@H](N)C(=O)N[C@H]1CSSC[C@@H](C(=O)N[C@H](C(N)=O)[C@@H](C)O)NC(=O)[C@H](CCCNC(=N)N)NC(=O)[C@H](Cc2c[nH]cn2)NC(=O)[C@H](Cc2c[nH]cn2)NC(=O)CNC(=O)[C@H](Cc2c[nH]c3ccccc23)NC(=O)[C@H](CC(=O)O)NC(=O)[C@H](CCC(N)=O)NC(=O)[C@H](C(C)C)NC(=O)[C@H](C(C)C)NC1=O", "note": "[compstatin]", "values": [
      {"measurement": "species specificity of C3 binding", "setting": "C3", "value": "can bind only primates but not rodent C3"}
    ]},
    {"compound": "NC(N)=NCCC[C@H](NC(=O)COCC(c1ccccc1)c1ccccc1)C(=O)O.O=C(O)C(F)(F)F", "note": "[C3aRa, SB290157 trifluoroacetate, reference compound]", "values": [
      {"measurement": "cellular levels of NLRP3, cleaved-caspase-1, cleaved-IL1β and IL18", "setting": "RAW264.7 cells; RAW264.7 treated with C3a (50 nM), 1 mM C3aRa", "value": "reduced"}
    ]},
    {"compound": "C3a: complement anaphylatoxin C3a protein used at 50 nM to stimulate macrophages", "values": [
      {"measurement": "cleaved-IL1β production by macrophages", "setting": "RAW264.7 cells; RAW264.7, C3a 50 nM", "value": "stimulated macrophages to produce cleaved-IL1β"}
    ]},
    {"compound": "C[C@H]1C(=O)O[C@@H]2CCN3CC=C(COC(=O)[C@](C)(O)[C@]1(C)O)[C@H]23", "note": "[MCT, Monocrotaline, reference compound]", "values": [
      {"measurement": "RVSP after 4 weeks of MCT treatment", "setting": "[1]", "value": "63.03 ± 4.19", "unit": "mmHg"}
    ]},
    {"compound": "IL-1RA: IL-1RA protein reagent (MedChemExpress HY-P72566), 100 ng/ml pretreatment of PASMCs", "values": [
      {"measurement": "PCNA and Cyclin D1 expression in PASMCs", "setting": "[2]; C3a-supernatant + IL-1RA vs C3a-supernatant + PBS, western blot", "value": "decreased"},
      {"measurement": "number of EdU-positive PASMCs increased by macrophage-conditioned media", "setting": "[2]; C3a-supernatant, 100 ng/ml IL-1RA pretreatment 1 h", "value": "reversed"}
    ]}
  ]
}
